Results from the supplement of paper PMC10307832.

Columns and labels:
Experiment in all cases: relative viability (nuclei count vs DMSO), 5 days (fraction); higher = more cells survive
Kobe2602 + Crizotinib = compound: C1=CC(=CC=C1NC(=S)NNC2=C(C=C(C=C2[N+](=O)[O-])C(F)(F)F)[N+](=O)[O-])F [Kobe2602] + C[C@@H](Oc1cc(-c2cnn(C3CCNCC3)c2)cnc1N)c1c(Cl)ccc(F)c1Cl [Crizotinib] (partner 1 µM)
How it was run: (§1)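 Each reported value is a median over duplicate plates. It expresses relative viability: treated-well nuclei count divided by vehicle-well nuclei count. Lung cancer cell lines in 1536-well plates were dosed by pin tool a day after seeding, alone with one drug or with a fixed anchor-drug dose plus five library-drug doses (not always all listed) in √10 steps, and nuclei were counted after 5 days.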

Zosuquidar + Olaparib = compound: O[C@@H](COc1cccc2ncccc12)CN1CCN([C@@H]2c3ccccc3[C@@H]3[C@H](c4ccccc42)C3(F)F)CC1 [Zosuquidar] + O=C(c1cc(Cc2n[nH]c(=O)c3ccccc23)ccc1F)N1CCN(C(=O)C2CC2)CC1 [Olaparib] (partner 8 µM)
How it was run: as §1

Zosuquidar + Phenformin = compound: O[C@@H](COc1cccc2ncccc12)CN1CCN([C@@H]2c3ccccc3[C@@H]3[C@H](c4ccccc42)C3(F)F)CC1 [Zosuquidar] + N=C(N)NC(=N)NCCc1ccccc1 [Phenformin] (partner 250 µM)
How it was run: as §1

[1] = compound: COc1cc2nccc(Oc3ccc(NC(=O)C4(C(=O)Nc5ccc(F)cc5)CC4)cc3)c2cc1OC [Cabozantinib] + CC(=O)c1c(C)c2cnc(Nc3ccc(N4CCNCC4)cn3)nc2n(C2CCCC2)c1=O [Palbociclib] (partner 0.5 µM)
How it was run: as §1

## UMC-11
Kobe2602 + Crizotinib; first compound 0.2 µM
  relative viability: 0.578
Kobe2602 + Crizotinib; first compound 0.6325 µM
  relative viability: 0.545
Kobe2602 + Crizotinib; first compound 2 µM
  relative viability: 0.672
Kobe2602 + Crizotinib; first compound 6.325 µM
  relative viability: 0.619
Kobe2602 + Crizotinib; first compound 20 µM
  relative viability: 0.639
Zosuquidar + Olaparib; first compound 0.01 µM
  relative viability: 0.505
Zosuquidar + Olaparib; first compound 0.03162 µM
  relative viability: 0.38
Zosuquidar + Olaparib; first compound 0.1 µM
  relative viability: 0.413
Zosuquidar + Olaparib; first compound 0.3162 µM
  relative viability: 0.385
Zosuquidar + Olaparib; first compound 1 µM
  relative viability: 0.34
Zosuquidar + Phenformin; first compound 0.01 µM
  relative viability: 0.32
Zosuquidar + Phenformin; first compound 0.03162 µM
  relative viability: 0.331
Zosuquidar + Phenformin; first compound 0.1 µM
  relative viability: 0.441
Zosuquidar + Phenformin; first compound 0.3162 µM
  relative viability: 0.386
Zosuquidar + Phenformin; first compound 1 µM
  relative viability: 0.324
[1]; first compound 0.02 µM
  relative viability: 0.352
[1]; first compound 0.06325 µM
  relative viability: 0.324
[1]; first compound 0.2 µM
  relative viability: 0.336
[1]; first compound 0.6325 µM
  relative viability: 0.312
[1]; first compound 2 µM
  relative viability: 0.334
